From article PMC7026418, “The kinase polypharmacology landscape of clinical PARP inhibitors” (Scientific Reports, 2020)
Read-outs that look alike come from different tables or passages of the source. One block for each compound: values may come before it.

Legend:
Test in all cases: biochemical
Set-up in all cases: DiscoveRx KINOMEscan active site-directed competition binding; percent of control kinase bound to immobilised ligand
[1] = biological target: T1, ABL1(F317L)-nonphosphorylated (Homo sapiens, UniProt P00519, F317L)
T1 construct: nonphosphorylated
T1 sequence (P00519 whole entry F317L): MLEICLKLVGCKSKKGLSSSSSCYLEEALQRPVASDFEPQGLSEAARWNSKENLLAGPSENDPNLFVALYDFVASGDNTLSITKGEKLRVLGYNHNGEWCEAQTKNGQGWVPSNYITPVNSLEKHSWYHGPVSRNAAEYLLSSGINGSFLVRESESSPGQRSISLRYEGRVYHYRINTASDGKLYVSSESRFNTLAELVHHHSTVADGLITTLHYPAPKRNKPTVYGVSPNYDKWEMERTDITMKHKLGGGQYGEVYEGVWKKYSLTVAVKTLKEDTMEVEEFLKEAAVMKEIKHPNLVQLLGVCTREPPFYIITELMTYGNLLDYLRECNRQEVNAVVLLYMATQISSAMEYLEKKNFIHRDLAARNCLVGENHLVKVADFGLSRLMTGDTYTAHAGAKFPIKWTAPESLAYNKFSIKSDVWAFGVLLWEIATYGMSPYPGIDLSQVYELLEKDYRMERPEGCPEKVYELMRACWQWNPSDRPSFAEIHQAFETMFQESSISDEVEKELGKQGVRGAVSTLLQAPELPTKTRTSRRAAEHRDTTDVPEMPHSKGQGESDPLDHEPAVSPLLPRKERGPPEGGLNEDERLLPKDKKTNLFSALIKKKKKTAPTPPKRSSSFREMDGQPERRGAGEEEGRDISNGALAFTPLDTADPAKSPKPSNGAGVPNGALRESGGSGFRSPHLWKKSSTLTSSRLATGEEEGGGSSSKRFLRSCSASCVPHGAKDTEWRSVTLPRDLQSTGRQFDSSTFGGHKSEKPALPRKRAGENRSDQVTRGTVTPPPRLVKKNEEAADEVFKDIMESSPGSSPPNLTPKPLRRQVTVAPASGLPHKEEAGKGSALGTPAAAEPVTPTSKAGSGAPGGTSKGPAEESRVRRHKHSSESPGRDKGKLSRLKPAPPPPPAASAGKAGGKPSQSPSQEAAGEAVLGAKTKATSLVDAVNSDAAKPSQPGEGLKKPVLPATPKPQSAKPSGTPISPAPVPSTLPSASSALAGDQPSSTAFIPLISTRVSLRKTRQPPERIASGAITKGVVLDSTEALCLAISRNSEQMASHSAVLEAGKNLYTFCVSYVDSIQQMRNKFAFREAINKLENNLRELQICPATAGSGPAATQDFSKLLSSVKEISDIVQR

ADCK3 = biological target: T2, ADCK3 (Homo sapiens, UniProt Q8NI60)
T2 construct: gene COQ8A
T2 sequence (Q8NI60 whole entry): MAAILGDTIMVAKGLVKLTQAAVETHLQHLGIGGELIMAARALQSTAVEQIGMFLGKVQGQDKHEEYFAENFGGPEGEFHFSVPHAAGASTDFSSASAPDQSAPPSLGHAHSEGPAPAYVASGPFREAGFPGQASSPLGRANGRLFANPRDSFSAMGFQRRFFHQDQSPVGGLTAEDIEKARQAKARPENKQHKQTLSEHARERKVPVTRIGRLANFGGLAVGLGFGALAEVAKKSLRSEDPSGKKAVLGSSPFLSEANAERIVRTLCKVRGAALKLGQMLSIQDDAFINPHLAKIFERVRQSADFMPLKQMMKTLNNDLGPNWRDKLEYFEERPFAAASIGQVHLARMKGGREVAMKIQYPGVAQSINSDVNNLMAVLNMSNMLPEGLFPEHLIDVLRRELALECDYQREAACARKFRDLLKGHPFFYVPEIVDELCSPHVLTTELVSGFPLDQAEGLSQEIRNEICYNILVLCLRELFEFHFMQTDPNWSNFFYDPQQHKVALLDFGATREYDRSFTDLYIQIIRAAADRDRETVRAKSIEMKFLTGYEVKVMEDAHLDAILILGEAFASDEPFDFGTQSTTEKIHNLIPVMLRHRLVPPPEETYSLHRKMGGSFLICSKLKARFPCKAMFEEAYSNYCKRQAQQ

ALK(L1196M) = ALK(L1196M) (Homo sapiens, UniProt Q9UM73, L1196M)
BMPR2 = biological target: T3, BMPR2 (Homo sapiens, UniProt Q13873)
T3 sequence (Q13873 1-1038): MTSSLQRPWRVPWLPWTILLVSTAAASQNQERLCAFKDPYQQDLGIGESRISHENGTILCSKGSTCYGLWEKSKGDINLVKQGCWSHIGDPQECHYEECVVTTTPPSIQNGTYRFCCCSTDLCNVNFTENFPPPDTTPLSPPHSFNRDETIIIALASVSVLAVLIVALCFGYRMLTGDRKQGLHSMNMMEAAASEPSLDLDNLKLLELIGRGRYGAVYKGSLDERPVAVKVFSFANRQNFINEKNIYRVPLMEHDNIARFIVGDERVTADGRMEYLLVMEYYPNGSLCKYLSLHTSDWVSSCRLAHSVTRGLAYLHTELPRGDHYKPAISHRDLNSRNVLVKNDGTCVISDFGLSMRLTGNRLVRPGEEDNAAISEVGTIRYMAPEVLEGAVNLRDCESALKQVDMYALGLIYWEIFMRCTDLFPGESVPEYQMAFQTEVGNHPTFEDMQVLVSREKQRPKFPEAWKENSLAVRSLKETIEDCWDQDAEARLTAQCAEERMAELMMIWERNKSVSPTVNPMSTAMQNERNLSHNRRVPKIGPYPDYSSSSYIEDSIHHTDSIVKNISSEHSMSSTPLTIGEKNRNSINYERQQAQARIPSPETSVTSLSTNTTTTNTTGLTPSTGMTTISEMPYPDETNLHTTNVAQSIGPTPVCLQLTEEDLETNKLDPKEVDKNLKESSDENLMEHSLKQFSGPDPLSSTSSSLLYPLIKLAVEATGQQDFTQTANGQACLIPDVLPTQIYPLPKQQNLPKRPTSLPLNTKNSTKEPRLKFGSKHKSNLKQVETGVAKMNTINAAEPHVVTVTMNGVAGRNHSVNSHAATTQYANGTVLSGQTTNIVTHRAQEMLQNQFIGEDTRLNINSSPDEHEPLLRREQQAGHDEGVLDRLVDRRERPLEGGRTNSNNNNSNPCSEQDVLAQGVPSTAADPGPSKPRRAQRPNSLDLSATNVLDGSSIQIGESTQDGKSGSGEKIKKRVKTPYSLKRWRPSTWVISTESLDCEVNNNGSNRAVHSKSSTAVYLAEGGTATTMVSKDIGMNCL

CIT = CIT (Homo sapiens, UniProt O14578)
CSNK1E = CSNK1E (Homo sapiens, UniProt P49674)
Chain of CSNK1E (P49674 whole entry): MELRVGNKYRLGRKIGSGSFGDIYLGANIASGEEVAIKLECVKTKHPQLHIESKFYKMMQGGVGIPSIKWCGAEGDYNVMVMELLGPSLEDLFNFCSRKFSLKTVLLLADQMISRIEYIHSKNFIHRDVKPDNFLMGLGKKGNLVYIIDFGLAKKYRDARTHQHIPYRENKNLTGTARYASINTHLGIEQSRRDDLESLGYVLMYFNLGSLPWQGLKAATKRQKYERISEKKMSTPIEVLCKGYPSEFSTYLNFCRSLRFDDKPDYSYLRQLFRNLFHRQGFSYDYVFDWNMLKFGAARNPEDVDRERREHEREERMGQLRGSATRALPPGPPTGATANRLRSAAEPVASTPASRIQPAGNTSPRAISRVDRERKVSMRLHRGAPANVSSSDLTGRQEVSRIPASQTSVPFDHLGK

IGF1R = IGF1R (Homo sapiens, UniProt P08069)
Chain of IGF1R (P08069 whole entry): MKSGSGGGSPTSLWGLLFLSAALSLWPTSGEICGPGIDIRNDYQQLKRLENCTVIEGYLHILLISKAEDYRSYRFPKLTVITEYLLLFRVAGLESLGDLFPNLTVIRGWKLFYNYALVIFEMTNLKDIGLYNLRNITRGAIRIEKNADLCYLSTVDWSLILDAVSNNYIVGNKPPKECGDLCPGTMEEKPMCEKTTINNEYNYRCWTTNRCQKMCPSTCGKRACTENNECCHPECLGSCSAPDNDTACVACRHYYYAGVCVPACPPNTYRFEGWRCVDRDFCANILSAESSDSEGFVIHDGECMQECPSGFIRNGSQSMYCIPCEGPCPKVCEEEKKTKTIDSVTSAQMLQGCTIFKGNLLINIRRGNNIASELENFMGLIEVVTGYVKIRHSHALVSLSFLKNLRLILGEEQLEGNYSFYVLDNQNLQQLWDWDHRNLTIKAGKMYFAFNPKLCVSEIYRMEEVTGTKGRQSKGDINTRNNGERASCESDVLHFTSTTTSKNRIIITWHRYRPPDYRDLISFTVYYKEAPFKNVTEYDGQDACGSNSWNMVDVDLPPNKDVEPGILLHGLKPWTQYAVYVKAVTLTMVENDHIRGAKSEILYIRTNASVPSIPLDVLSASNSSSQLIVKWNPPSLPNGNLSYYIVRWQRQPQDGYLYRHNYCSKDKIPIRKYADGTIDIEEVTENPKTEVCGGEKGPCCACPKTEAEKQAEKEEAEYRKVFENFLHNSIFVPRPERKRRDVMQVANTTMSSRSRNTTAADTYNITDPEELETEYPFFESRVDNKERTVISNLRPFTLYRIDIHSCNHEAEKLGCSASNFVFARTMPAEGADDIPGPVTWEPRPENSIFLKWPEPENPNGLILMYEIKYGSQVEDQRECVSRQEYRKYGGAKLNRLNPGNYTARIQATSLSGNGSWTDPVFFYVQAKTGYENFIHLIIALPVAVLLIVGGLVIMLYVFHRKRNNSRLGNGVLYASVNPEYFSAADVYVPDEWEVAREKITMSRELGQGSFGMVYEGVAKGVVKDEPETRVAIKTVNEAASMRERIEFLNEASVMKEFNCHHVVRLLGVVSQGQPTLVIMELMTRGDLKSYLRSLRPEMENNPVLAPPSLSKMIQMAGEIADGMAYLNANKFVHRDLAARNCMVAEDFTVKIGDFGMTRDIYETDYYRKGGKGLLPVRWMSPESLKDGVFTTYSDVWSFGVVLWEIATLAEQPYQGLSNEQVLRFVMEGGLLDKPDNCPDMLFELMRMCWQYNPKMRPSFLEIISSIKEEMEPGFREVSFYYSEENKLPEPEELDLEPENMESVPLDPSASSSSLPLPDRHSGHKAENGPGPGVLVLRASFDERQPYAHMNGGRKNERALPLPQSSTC

PAK1 = PAK1 (Homo sapiens, UniProt Q13153)
Chain of PAK1 (Q13153 whole entry): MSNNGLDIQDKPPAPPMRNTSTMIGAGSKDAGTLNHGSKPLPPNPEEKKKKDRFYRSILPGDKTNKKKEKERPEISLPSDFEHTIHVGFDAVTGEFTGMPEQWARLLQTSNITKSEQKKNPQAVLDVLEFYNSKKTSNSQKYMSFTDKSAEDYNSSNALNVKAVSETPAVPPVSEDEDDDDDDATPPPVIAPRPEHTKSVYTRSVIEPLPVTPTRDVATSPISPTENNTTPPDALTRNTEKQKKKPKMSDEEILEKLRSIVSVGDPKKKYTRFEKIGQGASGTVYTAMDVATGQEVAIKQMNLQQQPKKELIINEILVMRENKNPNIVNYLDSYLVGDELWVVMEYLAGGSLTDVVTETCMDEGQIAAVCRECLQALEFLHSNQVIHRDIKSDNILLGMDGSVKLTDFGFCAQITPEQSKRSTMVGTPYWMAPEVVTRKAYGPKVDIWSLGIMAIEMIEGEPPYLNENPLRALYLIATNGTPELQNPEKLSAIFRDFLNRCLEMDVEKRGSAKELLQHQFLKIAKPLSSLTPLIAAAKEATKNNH

SRC = SRC (Homo sapiens, UniProt P12931)
Chain of SRC (P12931 whole entry): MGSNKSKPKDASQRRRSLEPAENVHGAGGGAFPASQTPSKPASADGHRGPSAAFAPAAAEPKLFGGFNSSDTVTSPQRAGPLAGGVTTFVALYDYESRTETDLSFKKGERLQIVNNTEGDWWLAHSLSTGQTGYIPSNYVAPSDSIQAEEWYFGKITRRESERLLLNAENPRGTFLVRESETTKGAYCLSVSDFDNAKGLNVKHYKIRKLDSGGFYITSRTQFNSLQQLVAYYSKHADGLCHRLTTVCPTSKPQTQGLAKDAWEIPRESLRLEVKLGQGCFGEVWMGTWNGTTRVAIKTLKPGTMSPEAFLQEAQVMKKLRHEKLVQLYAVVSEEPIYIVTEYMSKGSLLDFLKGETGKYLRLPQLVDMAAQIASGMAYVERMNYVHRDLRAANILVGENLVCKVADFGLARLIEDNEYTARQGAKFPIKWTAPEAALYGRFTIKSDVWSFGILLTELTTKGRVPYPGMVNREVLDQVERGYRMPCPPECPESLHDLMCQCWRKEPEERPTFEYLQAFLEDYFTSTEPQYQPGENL

TTK = biological target: T4, TTK (Homo sapiens, UniProt P33981)
T4 sequence (P33981 1-857): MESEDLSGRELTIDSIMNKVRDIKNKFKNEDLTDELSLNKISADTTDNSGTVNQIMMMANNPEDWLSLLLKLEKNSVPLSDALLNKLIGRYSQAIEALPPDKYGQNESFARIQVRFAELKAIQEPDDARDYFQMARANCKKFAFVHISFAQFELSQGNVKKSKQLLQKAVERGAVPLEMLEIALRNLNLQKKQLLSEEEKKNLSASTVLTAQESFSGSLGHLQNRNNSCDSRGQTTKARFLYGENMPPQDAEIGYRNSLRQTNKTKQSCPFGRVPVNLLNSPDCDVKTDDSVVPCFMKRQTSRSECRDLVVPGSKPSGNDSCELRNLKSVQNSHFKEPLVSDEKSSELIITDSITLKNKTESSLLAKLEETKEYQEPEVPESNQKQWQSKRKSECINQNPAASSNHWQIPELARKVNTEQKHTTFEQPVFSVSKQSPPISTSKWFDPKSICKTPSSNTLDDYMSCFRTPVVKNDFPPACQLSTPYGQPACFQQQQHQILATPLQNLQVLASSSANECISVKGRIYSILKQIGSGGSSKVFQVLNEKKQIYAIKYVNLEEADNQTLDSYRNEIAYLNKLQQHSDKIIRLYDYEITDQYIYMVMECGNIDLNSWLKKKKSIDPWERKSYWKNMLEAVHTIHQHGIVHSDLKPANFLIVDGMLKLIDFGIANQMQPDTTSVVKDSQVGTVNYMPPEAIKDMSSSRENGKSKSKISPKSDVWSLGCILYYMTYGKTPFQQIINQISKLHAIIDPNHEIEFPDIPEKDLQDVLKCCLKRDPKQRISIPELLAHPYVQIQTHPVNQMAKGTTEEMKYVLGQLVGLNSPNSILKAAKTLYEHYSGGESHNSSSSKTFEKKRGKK

[2] = read-out: Olaparib / %Ctrl @ 10000nM
[3] = read-out: Talazoparib (BMN 673) / %Ctrl @ 10000nM
[4] = read-out: Rucaparib / %Ctrl @ 10000nM, binding competition, % of control
[5] = read-out: Niraparib (MK-4827) / %Ctrl @ 10000nM

percent of control binding at 10 µM [1, 2]: 81%
percent of control binding at 10 µM (ADCK3; [2]): 99%
percent of control binding at 10 µM (ALK(L1196M); [2]): 83%
percent of control binding at 10 µM (BMPR2; [2]): 80%
percent of control binding at 10 µM (CIT; [2]): 87%
percent of control binding at 10 µM (CSNK1E; [2]): 90%
percent of control binding at 10 µM (IGF1R; [2]): 95%
percent of control binding at 10 µM (PAK1; [2]): 91%
percent of control binding at 10 µM (SRC; [2]): 100%
percent of control binding at 10 µM (TTK; [2]): 90%
Compound: O=C(c1cc(Cc2n[nH]c(=O)c3ccccc23)ccc1F)N1CCN(C(=O)C2CC2)CC1 [Olaparib]

percent of control binding at 10 µM [1, 3]: 58%
percent of control binding at 10 µM (ADCK3; [3]): 100%
percent of control binding at 10 µM (ALK(L1196M); [3]): 100%
percent of control binding at 10 µM (BMPR2; [3]): 100%
percent of control binding at 10 µM (CIT; [3]): 98%
percent of control binding at 10 µM (CSNK1E; [3]): 69%
percent of control binding at 10 µM (IGF1R; [3]): 87%
percent of control binding at 10 µM (PAK1; [3]): 93%
percent of control binding at 10 µM (SRC; [3]): 93%
percent of control binding at 10 µM (TTK; [3]): 99%
Compound: Cn1ncnc1[C@H]1c2n[nH]c(=O)c3cc(F)cc(c23)N[C@@H]1c1ccc(F)cc1 [Talazoparib]

percent of control binding at 10 µM [1, 4]: 69%
percent of control binding at 10 µM (ADCK3; [4]): 69%
percent of control binding at 10 µM (ALK(L1196M); [4]): 83%
percent of control binding at 10 µM (BMPR2; [4]): 83%
percent of control binding at 10 µM (CIT; [4]): 4.8%
percent of control binding at 10 µM (CSNK1E; [4]): 76%
percent of control binding at 10 µM (IGF1R; [4]): 98%
percent of control binding at 10 µM (PAK1; [4]): 75%
percent of control binding at 10 µM (SRC; [4]): 99%
percent of control binding at 10 µM (TTK; [4]): 20%
Compound: CNCc1ccc(-c2[nH]c3cc(F)cc4c3c2CCNC4=O)cc1 [Rucaparib]

Compound: NC(=O)c1cccc2cn(-c3ccc([C@@H]4CCCNC4)cc3)nc12 [Niraparib]
percent of control binding at 10 µM [1, 5]: 96%
percent of control binding at 10 µM (ADCK3; [5]): 57%
percent of control binding at 10 µM (ALK(L1196M); [5]): 81%
percent of control binding at 10 µM (BMPR2; [5]): 96%
percent of control binding at 10 µM (CIT; [5]): 10%
percent of control binding at 10 µM (CSNK1E; [5]): 57%
percent of control binding at 10 µM (IGF1R; [5]): 97%
percent of control binding at 10 µM (PAK1; [5]): 86%
percent of control binding at 10 µM (SRC; [5]): 94%
percent of control binding at 10 µM (TTK; [5]): 54%
